Our source for the Ki values is US6440948B1, “Thiophene A2A receptor agonists” (CV Therapeutics, Inc., priority 1999, dated 2002).

The assay concerns the target T1, A2A receptor (Sus scrofa, UniProt K9IW67).
T1 construct: from tissue; host or cells: pig striatum membranes
The experiment in a line: affinity for the A2A receptor in a pig striatum membrane prep (displacement of tritiated ZM 241385). The format is binding. The conditions noted are these: pig striatal membranes, 2 nM tritiated antagonist ZM 241385, 23° C. for 2h, greater than 5 point curve. How it is done:
Compounds of this invention were assayed to determine their affinity for the A2A receptor in a pig striatum membrane prep. Briefly, 0.2 mg of pig striatal membranes were treated with adenosine deaminase (2 U/mL) and 50 mM Tris buffer (pH=7,4) followed by mixing. To the pig membranes was added […] of serially diluted DMSO stock solution of the compounds of this invention at concentrations ranging from 10 nM to 100 μM or the control received […] of DMSO alone, then the: antagonist ZM 241385 in Tris buffer (50 mM, pH of 7.4) was added to achieve a final concentration of 2 nM . After incubation at 23° C. for 2h, then the solutions were filtered using a membrane harvester using multiple washing of the membranes (3x). The filter disks were counted in scintillation cocktail to determine the amount of displacement of tritiated ZM displaced by the compounds of this invention. Greater than a 5 point curve was used to generate Ki's. Compound 13 has a Ki between 1,000 and 10,000 nM.

T1 sequence (K9IW67 1-409): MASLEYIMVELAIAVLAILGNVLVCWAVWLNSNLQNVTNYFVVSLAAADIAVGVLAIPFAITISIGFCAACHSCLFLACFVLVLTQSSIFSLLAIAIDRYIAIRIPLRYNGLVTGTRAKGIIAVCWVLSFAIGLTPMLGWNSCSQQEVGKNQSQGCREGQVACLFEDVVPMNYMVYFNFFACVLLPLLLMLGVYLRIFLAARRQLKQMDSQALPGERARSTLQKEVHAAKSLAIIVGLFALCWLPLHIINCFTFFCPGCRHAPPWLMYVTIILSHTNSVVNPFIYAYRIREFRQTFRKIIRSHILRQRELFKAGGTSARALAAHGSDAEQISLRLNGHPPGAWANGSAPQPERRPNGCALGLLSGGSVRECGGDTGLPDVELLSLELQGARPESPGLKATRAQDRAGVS

The term Ki denotes a measure of affinity in units of concentration, obtained from inhibition or displacement. Higher therefore signals lower affinity. In turn, `Cc1ccc(-c2nc(N)c3ncn([C@@H]4O[C@H](CO)[C@@H](O)[C@H]4O)c3n2)s1` [Compound 13, (4S,2R,3R,5R)-2-[6-Amino-2-(5-methyl(2-thienyl))purin-9-yl]-5-(hydroxymethyl)oxolane-3,4-diol] came in with a Ki of 1 to 10 µM.
